Patent publication US10980776B2, “Synergistic pharmaceutical combination for the treatment of squamous cell carcinoma of head and neck” (Piramal Enterprises Limited, priority 2011, dated 2021)

How the values were obtained:
Detroit-562 cells [1] = assay: CCK-8 cytotoxicity assay, determination of inhibitory concentrations in Detroit-562 cells; assay type: cell-based; conditions: 72 hr
Experimental: (§1) Logarithmically growing cells were plated at a density of 3×10^3 cells/well and allowed to recover overnight. […] After 72 hours, cell toxicity was determined by CCK-8 (Cell Counting Kit-8) reagent (Dojindo Molecular Technologies, Japan); WST-8 (2-(2-methoxy-4-nitrophenyl)-3-(4-nitrophenyl)-5-(2, 4-disulfophenyl)]-2H-tetrazolium, monosodium salt) assay. In accordance with the manufacturer's instructions, 5 μl/well CCK-8 reagent was added and plates were incubated for 2 hours. The toxicity was determined by measuring the absorbance on Tecan Sapphire multi-fluorescence micro-plate reader (Tecan, Germany, GmbH) at a wavelength of 450 nm corrected to 650 nm and normalized to controls.
(§2) CCK-8 allows convenient assays using Dojindo's tetrazolium salt, WST [8[(2-(2-methoxy-4-nitrophenyl)-3-(4-nitrophenyl)-5-(2,4-disulfophenyl)-2H-tetrazolium, monosodium salt], which produces a water-soluble formazan dye upon bioreduction in the presence of an electron carrier, 1-Methoxy PMS. CCK-8 solution is added directly to the cells; no pre-mixing of components is required. CCK-8 is a sensitive nonradioactive colorimetric assay for determining the number of viable cells in cell proliferation and cytotoxicity assays. WST-8 is bio-reduced by cellular dehydrogenases to an orange formazan product that is soluble in tissue culture medium. The amount of formazan produced is directly proportional to the number of living cells. The detection sensitivity of cell proliferation assays using WST-8 is higher than assays using the other tetrazolium salts such as MIT, XTT, MTS or WST-1. Optical Density was determined at measurement wavelength of 450 nm and reference wave length of 630 nm.
(§3) The cells were seeded at a density of 3000 cells/well, in a 200 μL in tissue culture grade 96 well plate and were allowed to recover for 24 hrs in a humidified 5%±0.2 CO2 incubator at 37° C.±0.5° C. […] The final DMSO concentration was 0.5% in wells. Plates were incubated for 48 hrs in humidified 5%±0.2 CO2 incubator at 37±0.5° C. After 48 hrs the plates were removed from CO2 incubator and 5 μL of Cell counting Kit (CCK-8) per well was added. The same plate was kept at 37° C. for 3 hrs, and allowed to come to room temperature. The absorbance at a wavelength of 450 nm was read on Tecan safire reader. The percent cytotoxicity was calculated using the following formula.

FADU cells [2] = assay: CCK-8 cytotoxicity assay, determination of inhibitory concentrations in FADU cells; assay type: cell-based, human; conditions: 72 hr
Experimental: as §1, §2, §3

SCC-25 cells [3] = assay: Combination studies (single and sequential combination dosing), % cytotoxicity in SCC-25 cells; conditions: SCC-25; single agent at IC70 (compound A 4.1 μM)
Experimental: as §1, §2
Sorafenib in the following dose of final concentration 0.18 μM and compound A in the following doses of final concentration 0.1 μM, 0.4 μM and 4.1 μM were analyzed in single dose and in all possible combinations of the dose range for the two anticancer agents mentioned above. The sequence of treatment is as follows; the SCC-25 cells were treated with sorafenib for 0 to 24 hrs. At the end of 24 hrs the cells were washed two times with plain MEM (minimum essential media) medium. Fresh MEM with 10% serum (200 μL/well) was added, followed by treatment with compound A from 24 hrs to 96 hrs.
(§4) Sorafenib in the following dose of final concentration 0.18 μM and compound B in the following doses of final concentration 0.2 μM, 1.1 μM and 4.8 μM were analyzed in single dose and in all possible combinations of the dose range for the two anticancer agents mentioned above. The sequence of treatment is as follows; the SCC-25 cells were treated with sorafenib for 0 to 24 hrs. At the end of 24 hrs the cells were washed two times with plain MEM medium. Fresh MEM with 10% serum (200 μL/well) was added, followed by treatment with compound B from 24 hrs to 96 hrs.
Lapatinib in the following dose of final concentration 0.2 μM and compound A in the following doses of final concentration 0.2 μM, 0.5 μM and 3.3 μM were analyzed in single dose and in all possible combinations of the dose range for the two drugs mentioned above. The sequence of treatment is as follows; the SCC-25 cells were treated with lapatinib for 0 to 24 hrs. At the end of 24 hrs the cells were washed two times with plain MEM medium. Fresh MEM with 10% serum (200 μL/well) was added, followed by treatment with compound A from 24 hrs to 96 hrs.
(§5) Lapatinib in the following dose of final concentration 0.2 μM and compound B in the following doses of final concentration 0.2 μM, 1.1 μM and 4.8 μM were analyzed in single dose and in all possible combinations of the dose range for the two drugs mentioned above. The sequence of treatment is as follows; the SCC-25 cells were treated with lapatinib for 0 to 24 hrs. At the end of 24 hrs the cells were washed two times with plain MEM medium. Fresh MEM with 10% serum (200 μL/well) was added, followed by treatment with compound A from 24 hrs to 96 hrs.

[4] = system: FaDu (hypopharyngeal squamous cell carcinoma) xenografts; assay: In vivo efficacy in human head and neck cancer FaDu xenografts; conditions: FaDu xenografts in SCID mice; end of treatment, after 18 days; Compound A 35 mpk i.p. once daily 5 days a week; cisplatin 1 mpk i.p. once a week; cetuximab 2.5 mpk twice a week; 3 weeks
Experimental: In-vivo studies were carried out according to the method described in Clinical cancer search, 2003, 9, 6052-6061; the disclosure of which is incorporated herein by reference for the teaching of the assay.
The in-vivo studies were carried out using Xenograft models in Severe combined immune deficiency (SCID) mice strain—CbySmn.CB17-Prkdcscid/J, by the method described below. The statistically significant number of mice per group (n=6) was chosen in order to be able to statistically evaluate the study data.
FaDu cells were grown in MEM (minimum essential media) medium containing non-essential amino acids and 10% fetal calf serum in 5% CO2 incubator at 37° C. Cells were pelleted by centrifugation at 1000 rpm for 10 minutes. Cells were resuspended in pre-chilled mixture of saline to get a count of 6×10^6 cells per mL; 0.2 ml of this cell suspension was kept on ice and injected by subcutaneous (s.c.) route in SCID mice. Mice were observed every alternate day for palpable tumor mass. Once the tumor size reached a size of 3-5 mm in diameter, animals were randomized into respective groups of treatment and untreated controls. The treatment groups comprised of 5 groups viz. […] The control group received no treatment.
Measurement of tumor was done every 2-3 days apart. Growth inhibition percentage (GI %) was calculated at the end of experiment.

Detroit-562 cells [5] = assay: Combination studies (single and sequential combination dosing), % cytotoxicity in Detroit-562 cells; conditions: Detroit-562
Experimental: as §1, §2
as §4, with “1.8” for “0.18”, “A” for “B”, “0.5” for “0.2”, “1.3” for “1.1”, “12.1” for “4.8”, “Detroit-562” for “the SCC-25”
as §4, with “1.8” for “0.18”, “2.7” for “0.2”, “14.1” for “1.1”, “25.2” for “4.8”, “Detroit-562” for “SCC-25”
Lapatinib in the following dose of final concentration 1 μM and compound A in the following doses of final concentration 0.5 μM, 1.3 μM and 12.1 μM were analyzed in single dose and in all possible combinations of the dose range for the two anticancer agents mentioned above. The sequence of treatment is as follows; the Detroit-562 cells were treated with lapatinib for 0 to 24 hrs. At the end of 24 hrs the cells were washed two times with plain MEM medium. Fresh MEM with 10% serum (200 μL/well) was added, followed by treatment with compound A from 24 hrs to 96 hrs.
as §5, with “final concentration 1.0 μM and” for “final concentration 0.2 μM and”, “final concentration 2.7 μM, 14.1” for “final concentration 0.2 μM, 1.1”, “2.7 μM, 14.1 μM and” for “0.2 μM, 1.1 μM and”, “μM and 25.2 μM were” for “μM and 4.8 μM were”, “follows; the Detroit-562 cells were” for “follows; the SCC-25 cells were”

SCC-25 cells [6] = assay: CCK-8 cytotoxicity assay, determination of inhibitory concentrations in SCC-25 cells; assay type: cell-based; conditions: SCC-25 cells, 72 hr
Experimental: as §1, §2, §3

FADU cells [7] = system: FADU cells

Work on CN1CC[C@@H](c2c(O)cc(O)c3c(=O)cc(-c4ccccc4Cl)oc23)[C@@H]1CO.Cl (relative stereo) [Compound A, (+)-trans-2-(2-Chloro-phenyl)-5,7-dihydroxy-8-(2-hydroxy-methyl-1-methyl-pyrrolidin-3-yl)-chromen-4-one hydrochloride] yielded an IC10 (Detroit-562 cells [1]) of 100 nM, an IC30 (Detroit-562 cells [1]) of 500 nM and an IC50 (Detroit-562 cells [1]) of 1300 nM. It also gave an IC70 (Detroit-562 cells [1]) of 12100 nM, an IC90 (Detroit-562 cells [1]) of 26300 nM and an IC10 (FADU cells [2]) of 80 nM. The IC30 (FADU cells [2]) was 200 nM, the IC50 (FADU cells [2]) was 1300 nM and the IC70 (FADU cells [2]) was 8300 nM. For the same compound, the IC90 (FADU cells [2]) was 28300 nM, the “% Cytotoxicity” value (SCC-25 cells [3]) was 29% and the “Tumor Growth inhibition (%)” value [4] was 11%. The “% Cytotoxicity” value (Detroit-562 cells [5]; single agent at IC50 (compound A 1.3 μM), lapatinib study) was 22%, the “% Cytotoxicity” value (Detroit-562 cells [5]; single agent at IC70, cisplatin/5-FU/compound A study) was 18.02% and the “% Cytotoxicity” value (Detroit-562 cells [5]; single agent at IC70, erlotinib study) was 34.32%. It also gave an IC30 (SCC-25 cells [6]) of 100 nM, an IC70 (SCC-25 cells [6]) of 4100 nM and an IC90 (SCC-25 cells [6]) of 33300 nM. It also gave an IC50 (SCC-25 cells [6]; read-out: IC50) of 400 nM and a cytotoxicity (FADU cells [7]) of 18%.
